According to US10856562B2, “Flavor composition and edible compositions containing same” (MARS, INCORPORATED, priority 2013, dated 2020):
Square brackets hold non-standard residues; d marks the D form. Ends that are not written are not given here. pGlu = O=C1CC[C@@H](C(=O)O)N1

System: panelists
Experiment: Attribute perception scores of flavor enhancers in solution (Example 6)
Type: in vivo, human
Design: key to Metallic / Numbing / Atringent / Salt / Sweet / Sour / Bitter / Umami / Sour, mean evaluation score in solution / Numbing, mean evaluation score in solution / Astringent / Umami FF: 15-point intensity scale, 0 = none, 15 = very strong
Settings: for Astringent / Bitter / Flinty/Mineral / Metallic / Numbing / Salt / Sour / Sweet / Umami / Umami FF / Atringent / Mineral/Flinty / Umami/brothy: solution
Protocol: Descriptive attributes (e.g., taste, flavor and chemical feeling factors) of three use levels of pGlu-Cys (FE-35), pGlu-Cys-Gly (FE-36), pGlu-Cys-Cys (FE-37), pGlu-Cys-Val (FE-38) and pGlu-Val-Cys (UE-30) flavor composition peptides were determined. The three use levels were as follows: 1.0 ppb, 10.0 ppb and 100.0 ppb.
Data was collected for the attributes of the product in-mouth for the use levels according to the following protocol: • The samples were analyzed for flavor by six to nine members of a panel, trained and experienced in flavor evaluation using the Spectrum™ method. Samples were evaluated across multiple panel sessions. • The strength of each attribute was rated on a 15-point scale, where 0=none and 15=very strong. • This scale incorporates the ability to use tenths of a point and therefore has the potential of 150 scale differentiations. • The scale may be expanded beyond 15 points to include extreme ratings if necessary.
A summary of the concentrations of NaCl, water and flavor composition peptides in the solution samples is described in table 24.
The panelists evaluated each sample for the attributes described by table 25.

[1] = 10.0 ppb, mean evaluation score
[2] = 100.0 ppb, mean evaluation score
[3] = Concentration 1, MAX, 15-point scale
[4] = Concentration 1, MEAN, 15-point scale
[5] = Concentration 1, MIN, 15-point scale
[6] = Concentration 10, MAX, 15-point scale
[7] = Concentration 10, MEAN, 15-point scale
[8] = Concentration 10, MIN, 15-point scale
[9] = Concentration 100, MAX, 15-point scale
[10] = Concentration 100, MEAN, 15-point scale
[11] = Concentration 100, MIN, 15-point scale

For “[pGlu]-Cys-Cys (cysteine pairing not given here) [FE-37]”, the “Mineral/Flinty aromatic in solution as the concentration increases” value (1.0 to 100 ppb) was “increase very slightly”, the “Salt perception level in solution as the concentration increases” value (1.0 to 100 ppb) was “shows no distinct pattern” and the “Umami aromatic in solution as the concentration increases” value (1.0 to 100 ppb) was “increase very slightly”. The “Umami feeling factor in solution as the concentration increases” value (1.0 to 100 ppb) was “increases very slightly by 100 ppb”, the “Umami feeling factor in solution as the concentration increases” value (1.0 to 100 ppb, listed as FE 37) was “increase very slightly” and the Astringent (1.0 ppb, mean evaluation score) was 0.0. It also gave a Bitter (1.0 ppb, mean evaluation score) of 0.0, a Flinty/Mineral (1.0 ppb, mean evaluation score) of 0.7 and a Metallic (1.0 ppb, mean evaluation score) of 0.0. For the same substance, the Numbing (1.0 ppb, mean evaluation score) was 0.0, the Salt (1.0 ppb, mean evaluation score) was 2.4 and the Sour (1.0 ppb, mean evaluation score) was 0.0. For the same substance, the Sweet (1.0 ppb, mean evaluation score) was 0.0, the Umami (1.0 ppb, mean evaluation score) was 0.1 and the “Umami FF” value (1.0 ppb, mean evaluation score) was 1.3. It also gave an Astringent [1] of 0.0, a Bitter [1] of 0.0 and a Flinty/Mineral [1] of 0.8. For the same substance, the Metallic [1] was 0.0, the Numbing [1] was 0.0 and the Salt [1] was 3.0. It also gave a Sour [1] of 0.0, a Sweet [1] of 0.1 and a Umami [1] of 0.2. For the same substance, the “Umami FF” value [1] was 1.3, the Astringent [2] was 0.0 and the Bitter [2] was 0.0. For the same substance, the Flinty/Mineral [2] was 0.9, the Metallic [2] was 0.1 and the Numbing [2] was 0.0. For the same substance, the Salt [2] was 2.8, the Sour [2] was 0.0 and the Sweet [2] was 0.2. For the same substance, the Umami [2] was 0.5, the “Umami FF” value [2] was 1.6 and the Atringent [3] was 0.0. It also gave a Bitter [3] of 00, a Metallic [3] of 0.0 and a Mineral/Flinty [3] of 1.5. The Numbing [3] was 0.0, the Salt [3] was 2.8 and the Sour [3] was 0.0. The Sweet [3] was 0.0, the Umami [3] was 2.0 and the Umami/brothy [3] was 0.8. For the same substance, the Atringent [4] was 0.0, the Bitter [4] was 0.0 and the Metallic [4] was 0.0. For the same substance, the Mineral/Flinty [4] was 0.7, the Numbing [4] was 0.0 and the Salt [4] was 2.4. It also gave a Sour [4] of 0.0, a Sweet [4] of 0.0 and a Umami [4] of 1.3. The Umami/brothy [4] was 0.1, the Atringent [5] was 0.0 and the Bitter [5] was 0.0. The Metallic [5] was 0.0, the Mineral/Flinty [5] was 0.0 and the Numbing [5] was 0.0. The Salt [5] was 2.0, the Sour [5] was 0.0 and the Sweet [5] was 0.0. It also gave a Umami [5] of 0.0, a Umami/brothy [5] of 0.0 and an Atringent [6] of 0.0. It also gave a Bitter [6] of 0.0, a Metallic [6] of 0.0 and a Mineral/Flinty [6] of 1.0. It also gave a Numbing [6] of 0.0, a Salt [6] of 3.5 and a Sour [6] of 0.0. For the same substance, the Sweet [6] was 0.8, the Umami [6] was 2.5 and the Umami/brothy [6] was 1.0. For the same substance, the Atringent [7] was 0.0, the Bitter [7] was 0.0 and the Metallic [7] was 0.0. It also gave a Mineral/Flinty [7] of 0.8, a Numbing [7] of 0.0 and a Salt [7] of 3.0. It also gave a Sour [7] of 0.0, a Sweet [7] of 0.1 and a Umami [7] of 1.3. The Umami/brothy [7] was 0.2, the Atringent [8] was 0.0 and the Bitter [8] was 0.0. The Metallic [8] was 0.0, the Mineral/Flinty [8] was 0.0 and the Numbing [8] was 0.0. For the same substance, the Salt [8] was 2.5, the Sour [8] was 0.0 and the Sweet [8] was 0.0. It also gave a Umami [8] of 0.0, a Umami/brothy [8] of 0.0 and an Atringent [9] of 0.0. The Bitter [9] was 0.0, the Metallic [9] was 0.8 and the Mineral/Flinty [9] was 1.5. The Numbing [9] was 0.0, the Salt [9] was 4.5 and the Sour [9] was 0.0. For the same substance, the Sweet [9] was 1.0, the Umami [9] was 3.0 and the Umami/brothy [9] was 1.0. The Atringent [10] was 0.0, the Bitter [10] was 0.0 and the Metallic [10] was 0.1. For the same substance, the Mineral/Flinty [10] was 0.9, the Numbing [10] was 0.0 and the Salt [10] was 2.8. For the same substance, the Sour [10] was 0.0, the Sweet [10] was 0.2 and the Umami [10] was 1.6. The Umami/brothy [10] was 0.5, the Atringent [11] was 0.0 and the Bitter [11] was 0.0. It also gave a Metallic [11] of 0.0, a Mineral/Flinty [11] of 0.0 and a Numbing [11] of 0.0. For the same substance, the Salt [11] was 1.5, the Sour [11] was 0.0 and the Sweet [11] was 0.0. It also gave a Umami [11] of 0.0 and a Umami/brothy [11] of 0.0.
For [pGlu]-Cys-Gly [FE-36], the “Patterns of attributes in solution as concentrations increase” value (1.0 to 100 ppb) was “No distinct patterns are seen”, the Astringent (1.0 ppb, mean evaluation score) was 0.0 and the Bitter (1.0 ppb, mean evaluation score) was 0.0. For the same substance, the Flinty/Mineral (1.0 ppb, mean evaluation score) was 0.7, the Metallic (1.0 ppb, mean evaluation score) was 0.1 and the Numbing (1.0 ppb, mean evaluation score) was 0.0. For the same substance, the Salt (1.0 ppb, mean evaluation score) was 2.6, the Sour (1.0 ppb, mean evaluation score) was 0.0 and the Sweet (1.0 ppb, mean evaluation score) was 0.2. For the same substance, the Umami (1.0 ppb, mean evaluation score) was 0.3, the “Umami FF” value (1.0 ppb, mean evaluation score) was 1.5 and the Astringent [1] was 0.0. It also gave a Bitter [1] of 0.0, a Flinty/Mineral [1] of 0.8 and a Metallic [1] of 0.0. The Numbing [1] was 0.0, the Salt [1] was 1.9 and the Sour [1] was 0.0. For the same substance, the Sweet [1] was 0.0, the Umami [1] was 0.1 and the “Umami FF” value [1] was 0.9. The Astringent [2] was 0.0, the Bitter [2] was 0.0 and the Flinty/Mineral [2] was 0.8. It also gave a Metallic [2] of 0.0, a Numbing [2] of 0.0 and a Salt [2] of 2.1. For the same substance, the Sour [2] was 0.0, the Sweet [2] was 0.0 and the Umami [2] was 0.0. The “Umami FF” value [2] was 1.6, the Atringent [3] was 0.0 and the Bitter [3] was 0.0. The Metallic [3] was 0.8, the Mineral/Flinty [3] was 1.0 and the Numbing [3] was 0.0. The Salt [3] was 3.0, the Sour [3] was 0.0 and the Sweet [3] was 1.0. For the same substance, the Umami [3] was 2.0, the Umami/brothy [3] was 1.0 and the Atringent [4] was 0.0. The Bitter [4] was 0.0, the Metallic [4] was 0.1 and the Mineral/Flinty [4] was 0.7. For the same substance, the Numbing [4] was 0.0, the Salt [4] was 2.6 and the Sour [4] was 0.0. The Sweet [4] was 0.2, the Umami [4] was 1.5 and the Umami/brothy [4] was 0.3. The Atringent [5] was 0.0, the Bitter [5] was 0.0 and the Metallic [5] was 0.0. For the same substance, the Mineral/Flinty [5] was 0.0, the Numbing [5] was 0.0 and the Salt [5] was 2.5. For the same substance, the Sour [5] was 0.0, the Sweet [5] was 0.0 and the Umami [5] was 1.0. The Umami/brothy [5] was 0.0, the Atringent [6] was 0.0 and the Bitter [6] was 0.0. It also gave a Metallic [6] of 0.0, a Mineral/Flinty [6] of 1.5 and a Numbing [6] of 0.0. It also gave a Salt [6] of 2.3, a Sour [6] of 0.0 and a Sweet [6] of 0.0. It also gave a Umami [6] of 2.0, a Umami/brothy [6] of 0.8 and an Atringent [7] of 0.0. For the same substance, the Bitter [7] was 0.0, the Metallic [7] was 0.0 and the Mineral/Flinty [7] was 0.8. For the same substance, the Numbing [7] was 0.0, the Salt [7] was 1.9 and the Sour [7] was 0.0. For the same substance, the Sweet [7] was 0.0, the Umami [7] was 0.9 and the Umami/brothy [7] was 0.1. The Atringent [8] was 0.0, the Bitter [8] was 0.0 and the Metallic [8] was 0.0. The Mineral/Flinty [8] was 0.0, the Numbing [8] was 0.0 and the Salt [8] was 1.5. The Sour [8] was 0.0, the Sweet [8] was 0.0 and the Umami [8] was 0.0. The Umami/brothy [8] was 0.0, the Atringent [9] was 0.0 and the Bitter [9] was 0.0. The Metallic [9] was 0.0, the Mineral/Flinty [9] was 1.0 and the Numbing [9] was 0.0. It also gave a Salt [9] of 3.0, a Sour [9] of 0.0 and a Sweet [9] of 0.0. For the same substance, the Umami [9] was 3.0, the Umami/brothy [9] was 0.0 and the Atringent [10] was 0.0. For the same substance, the Bitter [10] was 0.0, the Metallic [10] was 0.0 and the Mineral/Flinty [10] was 0.8. It also gave a Numbing [10] of 0.0, a Salt [10] of 2.1 and a Sour [10] of 0.0. It also gave a Sweet [10] of 0.0, a Umami [10] of 1.6 and a Umami/brothy [10] of 0.0. It also gave an Atringent [11] of 0.0, a Bitter [11] of 0.0 and a Metallic [11] of 0.0. For the same substance, the Mineral/Flinty [11] was 0.0, the Numbing [11] was 0.0 and the Salt [11] was 1.5. For the same substance, the Sour [11] was 0.0, the Sweet [11] was 0.0 and the Umami [11] was 0.5. It also gave a Umami/brothy [11] of 0.0.
